Results from patent publication US20250041461A1, “[177LU] LUTETIUM-PSMA I&T COMPOSITION AND DOSIMETRY, KIT, METHOD OF MAKING, AND METHOD OF USING THEREOF” (Curium US LLC, priority 2023, published 2025).

Assay: Eclipse PK and dosimetry sub-study, 27 patients, cycle 1 biodistribution and dosimetry (SPECT/CT, OLINDA 2.2.3)
Format: in vivo, human
Conditions: for Absorbed Dose Mean (SD): ECLIPSE, after Cycle 1; for Absorbed Dose in Cycle 1, Mean / Absorbed Dose in Cycle 1, min: N = 16
Description: Data Acquisition: All participating sites underwent a rigorous site setup process during which all dose calibrators, scanners, and gamma counters used in the sub-study were calibrated. Sites were allowed to enroll patients in the sub-study only after the completion and approval of all site setup processes by Invicro.
Patients underwent SPECT/CT imaging, with anatomical coverage typically extending from the salivary glands to the pelvis, following the administration of a targeted 7.4±10% GBq of ^177Lu-PSMA-I&T at cycle 1. SPECT/CT imaging was performed at four timepoints: 4 h, 24 h, 48 h, and 168 h post-injection. Additionally, a subset of patients imaged at Cycle 1 (16 out of 27), were also imaged at Cycle 3 (Table 7 in Appendix 1).
Image acquisition and reconstruction protocols were standardized across all imaging timepoints and patients at each site. Furthermore, each site consistently utilized the same SPECT/CT scanner throughout the duration of the study to ensure uniformity.
In general, raw projection data was acquired into a 128×128 matrix with medium energy general purpose (MEGP) collimation using a step and shoot acquisition mode, acquiring 60 projections per detector (180 degrees rotation per detector), 20 seconds per projection, with an acquisition zoom of 1.0, and a 20% (±10%) energy window centered over 208 keV.
A low-dose CT scan was performed prior to beginning the SPECT scan for attenuation correction. Sites were instructed to use the Institutional standard parameters for acquisition of the low-dose CT. Institutional standard reconstruction parameters were used. Scatter correction was required to be applied using a 20% (±10%) scatter window centered over 170 keV.
The imaging data was analysed using Invicro's VivoQuant software, a validated software used in a 21 CFR § 11-compliant workflow. The general quantification approach was based on the principles detailed in the Medical Internal Radiation Dose (MIRD) Pamphlet No. 16,^1 No 23,2 and No 26,3 as appropriate.
SPECT images were calibrated in units of Becquerel (Bq) using a calibration factor derived from a source of known activity, measured during site set up with the same acquisition and reconstruction parameters employed for patient imaging. A patient-specific calibration factor was also derived at each clinical time point after acquisition of the patient SPECT/CT. As a quality control measure, if the patient-specific calibration factor differed by more than 10% from the site set up calibration factor, an investigation was conducted.
Volume of interest (VOI) (kidneys, bladder, liver, lumbar vertebrae L2-L4, lacrimal glands, salivary glands [parotid and submandibular glands], and whole body) were delineated on each dataset by a trained image analyst. […] Organs were segmented either by drawing the entire contour of the organ, or by placing a sphere in a representative region of the organ and then multiplying by the organ's effective mass (based on patient's height and weight).^4 Segmentation methods for each organ are specified in Table 1 and were consistently applied to each patient.
Clearance of the radiopharmaceutical was derived from a data-appropriate fit of each organ's TAC. Depending on the TAC's shape, the data was fitted with the sum of one, two, or three exponentials, or using a rise and fall model. Fitting was performed with in-house Python software. TIACs were calculated through analytical integration of the curve fit extrapolated to infinity. […] A whole-body TAC was derived from delineating the imaged body. The remainder activity was determined by subtracting the cumulative organ TIACs from the whole body TIAC.
Organ TIACs were input into OLINDA 2.2.3 for the computation of organ and whole-body absorbed doses, using International Commission on Radiological Protection (ICRP)-103 weighing factors. The ICRP-89 derived male phantom was used for dose estimation. […]

[1] = Cycle 1, n = 26, patient 12-004 excluded
[2] = Lacrimal Glands (OLINDA sphere model)

O=C([O-])CC[C@H](NC(=O)N[C@@H](CCCCNC(=O)CCCCCCC(=O)NCCCC[C@@H](NC(=O)[C@@H](Cc1ccccc1)NC(=O)[C@@H](Cc1ccc(O)c(I)c1)NC(=O)CC[C@H](C(=O)[O-])N1CCN(CC(=O)[O-])CCN(CC(=O)[O-])CCN(CC(=O)[O-])CC1)C(=O)[O-])C(=O)[O-])C(=O)[O-].[177Lu+3].[H+].[H+].[H+].[H+].[H+] [^177Lu-PSMA I&T, (3S,7S,26R,29R,32R,37R)-29-benzyl-32-(4-hydroxy-3-iodobenzyl)-5,13,20,28,31,34-hexaoxo-37-(4,7,10-tris(carboxymethyl)-1,4,7,10-tetraazacyclododecan-1-yl)-4,6,12,21,27,30,33-heptaazaheptatriacontane-1,3,7,26,37-pentacarboxylic acid; lutetium-177 (III)]
Absorbed Dose, Red Marrow, max (Cycle 1, n = 26): 0.49 Gy/GBq | Absorbed Dose, Red Marrow, median (Cycle 1, n = 26): 0.03 Gy/GBq | Absorbed Dose, Red Marrow, min (Cycle 1, n = 26): 0.00 Gy/GBq | Absorbed Dose, Right Colon, max (Cycle 1, n = 26): 0.82 Gy/GBq | Absorbed Dose, Right Colon, median (Cycle 1, n = 26): 0.22 Gy/GBq | Absorbed Dose, Right Colon, min (Cycle 1, n = 26): 0.01 Gy/GBq | Absorbed Dose, Right colon, Mean (Cycle 1, n = 26): 0.25 Gy/GBq | Absorbed Dose, Small intestine, Mean (Cycle 1, n = 26): 0.05 Gy/GBq | Absorbed Dose, Small intestine, max (Cycle 1, n = 26): 0.15 Gy/GBq | Absorbed Dose, Small intestine, median (Cycle 1, n = 26): 0.04 Gy/GBq | Absorbed Dose, Small intestine, min (Cycle 1, n = 26): 0.01 Gy/GBq | Absorbed Dose, Spleen, Mean (Cycle 1, n = 26): 0.03 Gy/GBq | Absorbed Dose, Spleen, max (Cycle 1, n = 26): 0.11 Gy/GBq | Absorbed Dose, Spleen, median (Cycle 1, n = 26): 0.02 Gy/GBq | Absorbed Dose, Spleen, min (Cycle 1, n = 26): 0.01 Gy/GBq | Absorbed Dose, Stomach Wall, Mean (Cycle 1, n = 26): 0.02 Gy/GBq | Absorbed Dose, Stomach Wall, max (Cycle 1, n = 26): 0.07 Gy/GBq | Absorbed Dose, Stomach Wall, median (Cycle 1, n = 26): 0.01 Gy/GBq | Absorbed Dose, Stomach Wall, min (Cycle 1, n = 26): 0.00 Gy/GBq | Absorbed Dose, Testes, Mean (Cycle 1, n = 26): 0.01 Gy/GBq | Absorbed Dose, Testes, max (Cycle 1, n = 26): 0.07 Gy/GBq | Absorbed Dose, Testes, median (Cycle 1, n = 26): 0.01 Gy/GBq | Absorbed Dose, Testes, min (Cycle 1, n = 26): 10.00 Gy/GBq | Absorbed Dose, Thymus, Mean (Cycle 1, n = 26): 0.01 Gy/GBq | Absorbed Dose, Thymus, max (Cycle 1, n = 26): 0.07 Gy/GBq | Absorbed Dose, Thymus, median (Cycle 1, n = 26): 0.01 Gy/GBq | Absorbed Dose, Thymus, min (Cycle 1, n = 26): 0.00 Gy/GBq | Absorbed Dose, Thyroid, Mean (Cycle 1, n = 26): 0.01 Gy/GBq | Absorbed Dose, Thyroid, max (Cycle 1, n = 26): 0.07 Gy/GBq | Absorbed Dose, Thyroid, median (Cycle 1, n = 26): 0.01 Gy/GBq | Absorbed Dose, Thyroid, min (Cycle 1, n = 26): 0.00 Gy/GBq | Absorbed Dose, Total Body, Mean (Cycle 1, n = 26): 0.02 Gy/GBq | Absorbed Dose, Total Body, max (Cycle 1, n = 26): 0.09 Gy/GBq | Absorbed Dose, Total Body, median (Cycle 1, n = 26): 0.02 Gy/GBq | Absorbed Dose, Total Body, min (Cycle 1, n = 26): 0.01 Gy/GBq | Absorbed Dose, Urinary Bladder wall, Mean (Cycle 1, n = 26): 0.41 Gy/GBq | Absorbed Dose, Urinary Bladder wall, max (Cycle 1, n = 26): 0.50 Gy/GBq | Absorbed Dose, Urinary Bladder wall, median (Cycle 1, n = 26): 0.41 Gy/GBq | Absorbed Dose, Urinary Bladder wall, min (Cycle 1, n = 26): 0.33 Gy/GBq | absorbed dose, kidneys (Cycle 1, n = 26): 0.41±0.15 Gy/GBq | absorbed dose, left colon (Cycle 1, n = 26): 0.47±0.31 Gy/GBq | absorbed dose, rectum (Cycle 1, n = 26): 0.44±0.30 Gy/GBq | absorbed dose, urinary bladder (Cycle 1, n = 26): 0.41±0.05 Gy/GBq | Absorbed Dose, Salivary Glands, Mean [1]: 0.19 Gy/GBq | Absorbed Dose, Salivary Glands, max [1]: 0.80 Gy/GBq | Absorbed Dose, Salivary Glands, median [1]: 0.15 Gy/GBq | Absorbed Dose, Salivary Glands, min [1]: 0.03 Gy/GBq | Absorbed Dose Mean (SD) (Heart): 0.02 (0.02) Gy/GBq | Absorbed Dose Mean (SD) (Kidneys): 0.41 (0.15) Gy/GBq | Absorbed Dose in Cycle 1, Mean [2]: 0.39 Gy/GBq | Absorbed Dose in Cycle 1, min [2]: 0.04 Gy/GBq | Absorbed Dose Mean (SD) (Lacrimal Glands): 0.40 (0.36) Gy/GBq | Absorbed Dose Mean (SD) (Left Colon): 0.47 (0.31) Gy/GBq | Absorbed Dose Mean (SD) (Liver): 0.04 (0.02) Gy/GBq | Absorbed Dose in Cycle 1, min (Liver): 0.0 Gy/GBq | Absorbed Dose Mean (SD) (Right Colon): 0.25 (0.17) Gy/GBq | Absorbed Dose Mean (SD) (Salivary Glands): 0.19 (0.16) Gy/GBq | Absorbed Dose Mean (SD) (Spleen): 0.03 (0.02) Gy/GBq | Absorbed Dose in Cycle 1, Mean (Testes): 0.0 Gy/GBq | Absorbed Dose Mean (SD) (Thyroid): 0.01 (0.02) Gy/GBq | Absorbed Dose in Cycle 1, Mean (Urinary Bladder wall): 0.40 Gy/GBq | absorbed dose, lacrimal glands (cycle 1): 0.40±0.36 Gy/GBq | mean absorbed dose, bone marrow (red marrow) (cycle 1, image-based (L2-L4)): 0.08±0.12 Gy/GBq | absorbed dose, salivary glands (cycle 1, patient 12-004 excluded): 0.19±0.16 Gy/GBq
